Assays:
human NLRP3 [1] = biological target: T1, human NLRP3 (Homo sapiens (Human), UniProt Q96P20); test: Scintillation Proximity (SPA) NLRP3 Assay: displacement of 3H-MCC950; type: binding; conditions: read-out: SPA IC50
human NLRP3 [2] = biological target: T1, human NLRP3; test: Human PBMC NLRP3 Assay (LPS priming, ATP stimulation, cytokine measurement); type: cell-based; conditions: for IC50: read-out: PBMC IC50
[3] = human PBMC, LPS priming, ATP stimulation

T1 sequence (Q96P20 whole entry): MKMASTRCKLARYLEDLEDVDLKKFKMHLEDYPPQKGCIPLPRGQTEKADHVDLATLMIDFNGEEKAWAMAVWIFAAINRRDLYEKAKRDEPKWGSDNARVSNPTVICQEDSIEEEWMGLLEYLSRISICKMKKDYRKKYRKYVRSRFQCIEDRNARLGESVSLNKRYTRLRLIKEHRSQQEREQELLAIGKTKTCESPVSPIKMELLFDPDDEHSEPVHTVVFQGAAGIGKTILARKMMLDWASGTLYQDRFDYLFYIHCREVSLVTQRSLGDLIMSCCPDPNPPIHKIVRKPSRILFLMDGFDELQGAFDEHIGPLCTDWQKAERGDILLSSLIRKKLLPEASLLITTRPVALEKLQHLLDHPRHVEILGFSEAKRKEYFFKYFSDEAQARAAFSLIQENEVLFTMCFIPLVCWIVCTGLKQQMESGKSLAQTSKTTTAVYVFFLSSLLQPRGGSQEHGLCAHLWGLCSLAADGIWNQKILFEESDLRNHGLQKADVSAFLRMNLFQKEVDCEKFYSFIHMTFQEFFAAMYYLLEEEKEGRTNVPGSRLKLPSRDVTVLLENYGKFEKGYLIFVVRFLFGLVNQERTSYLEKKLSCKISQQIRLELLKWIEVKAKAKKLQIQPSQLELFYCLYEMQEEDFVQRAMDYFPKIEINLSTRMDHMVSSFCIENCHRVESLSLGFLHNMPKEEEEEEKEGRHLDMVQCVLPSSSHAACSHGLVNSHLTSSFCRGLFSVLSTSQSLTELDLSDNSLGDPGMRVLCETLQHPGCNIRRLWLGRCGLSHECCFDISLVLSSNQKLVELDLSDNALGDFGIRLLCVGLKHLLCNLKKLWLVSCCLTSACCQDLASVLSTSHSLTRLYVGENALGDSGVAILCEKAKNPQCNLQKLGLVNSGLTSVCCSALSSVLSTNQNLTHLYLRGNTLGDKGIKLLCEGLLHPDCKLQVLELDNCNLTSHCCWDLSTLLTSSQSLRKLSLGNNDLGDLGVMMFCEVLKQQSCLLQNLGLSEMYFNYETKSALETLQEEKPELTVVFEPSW

Row | SMILES | IC50 (human NLRP3 [1]; displacement of 3H-MCC950) [µM] | IC50 (human NLRP3 [2]; [3]) [µM] | other results
1 | O=C(NC1CC(C(F)(F)F)CCN(c2nnn[nH]2)C1)C1(c2ccc(Cl)cc2)CC1 (racemic) [Rac-1, 1-(4-chlorophenyl)-N-[1-(1H-1,2,3,4-tetrazol-5-yl)-5-(trifluoromethyl)azepan-3-yl]cyclopropane-1-carboxamide] | < 1 | 0.1 to 0.5 | 
2 | C[C@@H]1CCN(c2nnn[nH]2)C[C@H](NC(=O)C2(c3ccc(C4CC4)cc3)CC2)C1 (single isomer, unassigned) [2A*] | < 1 | 0.01 to 0.1 | 
3 | C[C@@H]1CCN(c2nnn[nH]2)C[C@H](NC(=O)C2(c3ccc(OC(F)F)cc3F)CC2)C1 (single isomer, unassigned) [3A*] | < 1 | 0.01 to 0.1 | 
4 | C[C@@H]1CCN(c2nnn[nH]2)C[C@H](NC(=O)C2(c3ccc(Cl)c(F)c3F)CC2)C1 (single isomer, unassigned) [4A*, 1-(4-chloro-2,3-difluorophenyl)-N-(5-methyl-1-(1H-tetrazol-5-yl)azepan-3-yl)cyclopropane-1-carboxamide] | < 1 | 0.01 to 0.1 | 
5 | C[C@@H]1CCN(c2nnn[nH]2)C[C@H](NC(=O)C2(c3ccc(C(F)F)cc3)CC2)C1 (single isomer, unassigned) [5A*, 1-(4-(difluoromethyl)phenyl)-N-(5-methyl-1-(1H-tetrazol-5-yl)azepan-3-yl)cyclopropane-1-carboxamide] | < 1 | 0.01 to 0.1 | 
6 | C[C@@H]1CCN(c2nnn[nH]2)C[C@H](NC(=O)C2(c3cc(F)c(C(F)(F)F)cc3F)CC2)C1 (single isomer, unassigned) [7A*, 1-(2,5-difluoro-4-(trifluoromethyl)phenyl)-N-(5-methyl-1-(1H-tetrazol-5-yl)azepan-3-yl)cyclopropane-1-carboxamide] | < 1 | 0.01 to 0.1 | 
7 | C[C@H]1CCN(c2nnn[nH]2)C[C@H](NC(=O)C2(c3ccc(Cl)c(F)c3O)CC2)C1 (single isomer, unassigned) [18C*, 1-(4-chloro-3-fluoro-2-hydroxyphenyl)-N-(5-methyl-1-(1H-tetrazol-5-yl)azepan-3-yl)cyclopropane-1-carboxamide] | 10 to 50 | 0.1 to 0.5 | 
8 | C[C@H]1CCN(c2nnn[nH]2)C[C@@H](NC(=O)C2(c3ccc(Cl)c(F)c3O)CC2)C1 (single isomer, unassigned) [18D*, 1-(4-chloro-3-fluoro-2-hydroxyphenyl)-N-(5-methyl-1-(1H-tetrazol-5-yl)azepan-3-yl)cyclopropane-1-carboxamide] | < 1 | 0.1 to 0.5 | 
9 | C[C@@H]1CCN(c2nnn[nH]2)C[C@H](NC(=O)C2(c3ccc(C(F)F)cc3O)CC2)C1 (single isomer, unassigned) [30A*, 1-(4-(difluoromethyl)-2-hydroxyphenyl)-N-(5-methyl-1-(1H-tetrazol-5-yl)azepan-3-yl)cyclopropane-1-carboxamide] | < 1 | < 0.01 | 
10 | C[C@@H]1CCN(c2nnn[nH]2)C[C@@H](NC(=O)C2(c3ccc(C(F)F)cc3O)CC2)C1 (single isomer, unassigned) [30B*, 1-(4-(difluoromethyl)-2-hydroxyphenyl)-N-(5-methyl-1-(1H-tetrazol-5-yl)azepan-3-yl)cyclopropane-1-carboxamide] | < 1 | 0.01 to 0.1 | 
11 | C[C@@H]1CCN(c2nnn[nH]2)C[C@@H](NC(=O)C2(c3ccc(C(F)(F)F)c(F)c3O)CC2)C1 (single isomer, unassigned) [31B*, 1-(3-fluoro-2-hydroxy-4-(trifluoromethyl)phenyl)-N-(5-methyl-1-(1H-tetrazol-5-yl)azepan-3-yl)cyclopropane-1-carboxamide] | < 1 | 0.01 to 0.1 | 
12 | C[C@@H]1CCN(c2nnn[nH]2)C[C@H](NC(=O)C2(c3ccc(C4CC4)c(F)c3O)CC2)C1 (single isomer, unassigned) [32A*, 1-(4-cyclopropyl-3-fluoro-2-hydroxyphenyl)-N-(5-methyl-1-(1H-tetrazol-5-yl)azepan-3-yl)cyclopropane-1-carboxamide] | < 1 | < 0.01 | 
13 | CC1(C)C[C@@H](NC(=O)C2(c3ccc(Cl)cc3O)CC2)CN(c2nnn[nH]2)C1 (single isomer, unassigned) [42A*] | < 1 | < 0.01 | IC50 (human NLRP3 [1]): 0.047 µM; IC50 (human NLRP3 [2]): 0.0058 µM
14 | C[C@@H]1CCN(c2nnn[nH]2)C[C@H](NC(=O)C2(c3ccc(C(F)(F)F)c(OC(F)F)c3)CC2)C1 (single isomer, unassigned) [54A*] | < 1 | 0.01 to 0.1 | 
15 | C[C@@H]1CCN(c2nnn[nH]2)C[C@H](NC(=O)C2(c3ccc(Cl)cc3Cl)CC2)C1 (single isomer, unassigned) [55A*] | < 1 | 0.01 to 0.1 | 
16 | C[C@@H]1CCN(c2nnn[nH]2)C[C@H](NC(=O)C2(c3ccc(Cl)c(F)c3)CC2)C1 (single isomer, unassigned) [65A*] | < 1 | 0.01 to 0.1 | 
17 | C[C@@H]1CCN(c2nnn[nH]2)C[C@H](NC(=O)C2(c3ccc(C(F)(F)F)cc3F)CC2)C1 (single isomer, unassigned) [68A*] | < 1 | < 0.01 | 
18 | C[C@@H]1CCN(c2nnn[nH]2)C[C@H](NC(=O)C2(c3ccc(SC(F)(F)F)cc3)CC2)C1 (single isomer, unassigned) [69A*] | < 1 | 0.01 to 0.1 | 

Row | SMILES | IC50 (human NLRP3 [1]; displacement of 3H-MCC950) [µM] | IC50 (human NLRP3 [2]; [3]) [µM] | other results
19 | C[C@@H]1CCN(c2nnn[nH]2)C[C@H](NC(=O)C2(c3ccc(OC(F)F)cc3O)CC2)C1 (single isomer, unassigned) [70A*] | < 1 | < 0.01 | 
20 | C[C@@H]1CCN(c2nnn[nH]2)C[C@@H](NC(=O)C2(c3ccc(OC(F)F)cc3O)CC2)C1 (single isomer, unassigned) [70B*] | < 1 | 0.01 to 0.1 | 
21 | C[C@H]1CCN(c2nnn[nH]2)C[C@@H](NC(=O)C2(c3ccc(OC(F)F)cc3O)CC2)C1 (single isomer, unassigned) [70D*] | < 1 | 0.01 to 0.1 | 
22 | Cc1ccc(C2(C(=O)N[C@@H]3C[C@H](C)CCN(c4nnn[nH]4)C3)CC2)cc1 (single isomer, unassigned) [71A*] | < 1 | 0.01 to 0.1 | 
23 | Cn1nnnc1N1CCC[C@@H](NC(=O)C2(c3ccc(Cl)cc3)CC2)C1 [Comparative Example F, (R)-1-(4-chlorophenyl)-N-(1-(1-methyl-1H-tetrazol-5-yl)piperidin-3-yl)cyclopropane-1-carboxamide, reference compound] |  |  | IC50 (human NLRP3 [2]): 8.4 µM
24 | O=C(N[C@@H]1CCCN(c2nnn[nH]2)C1)c1ccc(Cl)cc1 [Comparative Example G, (R)-N-(1-(1H-tetrazol-5-yl)piperidin-3-yl)-4-chlorobenzamide, reference compound] |  |  | IC50 (human NLRP3 [2]): > 100 µM
25 | O=C(Cc1ccc(Cl)cc1)N[C@@H]1CCCN(c2nnn[nH]2)C1 [Comparative Example H, (R)-N-(1-(1H-tetrazol-5-yl)piperidin-3-yl)-2-(4-chlorophenyl)acetamide, reference compound] |  |  | IC50 (human NLRP3 [2]): 10.5 µM
26 | O=C(N[C@@H]1CCCN(c2ccccc2)C1)c1ccc(Cl)cc1 [Comparative Example J1, (R)-4-chloro-N-(1-phenylpiperidin-3-yl)benzamide, reference compound] |  |  | IC50 (human NLRP3 [2]): > 100 µM
27 | O=C(N[C@H]1CCCN(c2ccccc2)C1)c1ccc(Cl)cc1 [Comparative Example J2, (S)-4-chloro-N-(1-phenylpiperidin-3-yl)benzamide, reference compound] |  |  | IC50 (human NLRP3 [2]): > 100 µM
28 | C[C@@H]1CC[C@@H](NC(=O)C2(c3ccc(Cl)cc3)CC2)CN1c1nnn[nH]1 [Compound 41C, 1-(4-chlorophenyl)-N-[(3R,6R)-6-methyl-1-(1H-tetrazol-5-yl)-3-piperidyl]cyclopropanecarboxamide] | > 100 |  | 
29 | O=C(N[C@@H]1C[C@H](F)CN(c2nnn[nH]2)C1)C1(c2ccc(Cl)cc2)CC1 [Compound 44A, 1-(4-chlorophenyl)-N-[(3R,5S)-5-fluoro-1-(1H-tetrazol-5-yl)-3-piperidyl]cyclopropanecarboxamide] | > 100 |  | 
30 | O=C(N[C@@H]1C[C@@H](F)CN(c2nnn[nH]2)C1)C1(c2ccc(Cl)cc2)CC1 [Compound 44C, 1-(4-chlorophenyl)-N-[(3R,5R)-5-fluoro-1-(1H-tetrazol-5-yl)-3-piperidyl]cyclopropanecarboxamide] | 10 to 50 |  | 
31 | C[C@@H]1C[C@@H](NC(=O)C2(c3ccc(Cl)cc3)CC2)CN(c2nnn[nH]2)C1 [Compound 46C, 1-(4-chlorophenyl)-N-[(3R,5R)-5-methyl-1-(1H-tetrazol-5-yl)-3-piperidyl]cyclopropanecarboxamide] | 10 to 50 |  | 
32 | C[C@@H]1CCN(c2nnn[nH]2)C[C@@H]1NC(=O)C1(c2ccc(Cl)cc2)CC1 [Compound 49A, 1-(4-chlorophenyl)-N-[(3R,4R)-4-methy1-1-(1H-tetrazol-5-yl)-3-piperidyl]cyclopropanecarboxamide] | > 100 |  | 
33 | O=C(N[C@H]1CN(c2nnn[nH]2)CC[C@H]1F)C1(c2ccc(Cl)cc2)CC1 [Compound 50A, 1-(4-chlorophenyl)-N-[(3S,4R)-4-fluoro-1-(1H-tetrazol-5-yl)-3-piperidyl]cyclopropanecarboxamide] | 10 to 50 |  | 
34 | O=C(N[C@H]1CN(c2nnn[nH]2)CC[C@@H]1F)C1(c2ccc(Cl)cc2)CC1 [Compound 50C, 1-(4-chlorophenyl)-N-[(3S,4S)-4-fluoro-1-(1H-tetrazol-5-yl)-3-piperidyl]cyclopropanecarboxamide] | 10 to 50 |  | 
35 | O=C(N[C@@H]1CCCN(c2nnn[nH]2)C1)C1(c2ccc(Cl)cc2F)CC1 [Compound 105, (R)-N-(1-(1H-tetrazol-5-yl)piperidin-3-yl)-1-(4-chloro-2-fluorophenyl)cyclopropane-1-carboxamide] |  | > 0.5 | IC50 (human NLRP3 [2]): 0.85 µM; fold increase in potency as measured by PBMC IC50 (human NLRP3 [2]; relative to Compound 10A): 2.5 fold
36 | O=C(N[C@@H]1CC[C@H]2CC[C@@H]1N2c1nnn[nH]1)C1(c2ccc(OC(F)F)cc2)CC1 [Compound 106, N-((1S,2R,5S)-8-(1H-tetrazol-5-yl)-8-azabicyclo[3.2.1]octan-2-yl)-1-(4-(difluoromethoxy)phenyl)cyclopropane-1-carboxamide] |  | > 0.5 | 
